This is an account of results in ChEMBL document CHEMBL4020789, “Development of 5-hydroxypyrazole derivatives as reversible inhibitors of lysine specific demethylase 1” (Bioorg Med Chem Lett, 2017).

Series [1] is described as follows: Half life in human microsomes. The series is classed as ADME, Microsome.
Series [2] can be described thus: Intrinsic clearance in human microsomes assessed […]. It counts as ADME, Microsome.
Series [3] is described as follows: Apparent permeability of the compound across apical side to basolateral side in human Caco2 cells. The series is classed as ADME, cell-based. Conditions: Caco-2.
Series [4] in a line: Half life in mouse hepatocytes. The series is classed as ADME, cell-based, Hepatocyte.
Series [5] has as its target Voltage-gated inwardly rectifying potassium channel KCNH2 (Homo sapiens, UniProt Q12809). The series is described as follows: Inhibition of human ERG by patch clamp assay.
Series [6] can be described thus: Fraction unbound in mouse. The series is classed as ADME, organism-based. The conditions noted are these: in vivo.
Series [7] is described as follows: Half life in po dosed mouse. It counts as ADME, organism-based. Conditions: in vivo.
Series [8] in a line: Clearance in mouse. It counts as ADME, organism-based. Conditions: in vivo.
A further series relates to Mus musculus. Kind of series: AUC in iv dosed mouse. It counts as ADME, organism-based. The conditions noted are these: in vivo.
Series [9] is described as follows: Oral bioavailability in mouse. The series is classed as ADME, organism-based. Conditions: in vivo.
The nature of series [10]: Volume of distribution in mouse. The series is classed as ADME, organism-based. The conditions noted are these: in vivo.
Series [11] in a line: Half life in iv dosed mouse. The series is classed as ADME, organism-based. Conditions: in vivo.

Where only a bound is given, the exact number is not on record here.

Sequence of Voltage-gated inwardly rectifying potassium channel KCNH2 (Q12809 whole entry): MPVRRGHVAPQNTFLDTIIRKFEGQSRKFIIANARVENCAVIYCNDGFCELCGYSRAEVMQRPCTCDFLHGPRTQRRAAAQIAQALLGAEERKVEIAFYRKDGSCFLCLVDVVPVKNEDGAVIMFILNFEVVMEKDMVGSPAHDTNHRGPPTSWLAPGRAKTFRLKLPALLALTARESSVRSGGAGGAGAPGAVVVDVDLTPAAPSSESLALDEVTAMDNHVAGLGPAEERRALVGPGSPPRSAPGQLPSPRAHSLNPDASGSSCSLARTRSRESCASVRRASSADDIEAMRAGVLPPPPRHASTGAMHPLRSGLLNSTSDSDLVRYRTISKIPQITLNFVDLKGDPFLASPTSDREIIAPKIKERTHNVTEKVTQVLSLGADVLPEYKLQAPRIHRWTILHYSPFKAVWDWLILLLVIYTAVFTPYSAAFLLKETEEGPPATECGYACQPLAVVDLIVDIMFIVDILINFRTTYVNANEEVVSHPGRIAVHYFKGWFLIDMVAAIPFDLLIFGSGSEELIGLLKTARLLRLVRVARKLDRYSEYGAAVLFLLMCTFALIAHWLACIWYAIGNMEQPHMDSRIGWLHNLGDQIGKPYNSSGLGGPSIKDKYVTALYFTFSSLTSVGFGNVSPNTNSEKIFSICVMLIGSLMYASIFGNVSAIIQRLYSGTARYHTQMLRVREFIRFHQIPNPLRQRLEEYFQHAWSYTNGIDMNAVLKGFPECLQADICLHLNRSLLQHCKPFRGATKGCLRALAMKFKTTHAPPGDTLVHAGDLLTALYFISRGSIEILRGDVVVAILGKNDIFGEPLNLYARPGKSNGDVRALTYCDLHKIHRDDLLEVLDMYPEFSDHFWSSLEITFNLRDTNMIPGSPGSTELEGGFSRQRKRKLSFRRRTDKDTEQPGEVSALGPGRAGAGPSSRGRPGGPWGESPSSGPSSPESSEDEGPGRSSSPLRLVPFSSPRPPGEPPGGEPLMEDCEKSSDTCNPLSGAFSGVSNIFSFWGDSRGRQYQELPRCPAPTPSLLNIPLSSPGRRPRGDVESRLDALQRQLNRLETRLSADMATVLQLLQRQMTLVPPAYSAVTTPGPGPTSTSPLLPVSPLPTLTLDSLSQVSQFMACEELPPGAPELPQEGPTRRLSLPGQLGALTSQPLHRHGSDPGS

`N#Cc1ccc(-n2nc(C(=O)N3CCC[C@@H](N)C3)cc2OCC(O)C(F)(F)F)cc1` (some centres undefined) came in with a half-life in series [1] of 250 min. This compound displayed a CL in [2] of 5.6 µL/min. The Papp A→B in series [3] was < 0.1 ×10⁻⁶ cm/s.

Regarding `Cc1cc(COc2cc(C(=O)N3CCC[C@@H](N)C3)nn2-c2ccc(C#N)cc2)on1`, the half-life in [4] is 68 min; in series [1], 201 min. Moreover, the CL in series [2] was found to be 6.91 µL/min. Also, the Papp A→B in series [3] turned out to be 0.73 ×10⁻⁶ cm/s.

For the compound `Cc1ccc(-c2ncc(OC[C@H]3CCNC3)cc2-c2ccc(C#N)cc2)cc1`, the IC50 in [5] is 3 µM. This lies in the single-digit micromolar range.

In the case of `CCc1cc(COc2cc(C(=O)N3CCC[C@@H](N)C3)nn2-c2ccc(C#N)cc2)on1`, the half-life in [4] was 121 min; in series [7] it was 78 min; in [1], 250 min; in series [11], 54 min. Also, in [6], the fraction unbound was determined as 0.19. This compound showed a clearance in series [8] of 45.7 mL/min/kg. The compound further had an AUC in the series with Mus musculus of 0.405 µg/h/mL. Moreover, the bioavailability in series [9] worked out at 38%. Besides, the Vd in [10] stood at 3.1 L/kg. In addition, the CL in [2] is 5.6 µL/min. For the same compound, the Papp A→B in [3] was found to be 0.415 ×10⁻⁶ cm/s.
